Test results taken from ChEMBL document CHEMBL2384984, “Multivalent presentation of a hydrolytically stable GM(3) lactone mimetic as modulator of melanoma cells motility and adhesion” (2013).
Active and inactive are the calls of the source. The rule behind the calls is not given here.

Experiments:
[1] = biological target: RAC-alpha serine/threonine-protein kinase (Homo sapiens) (UniProt P31749); assay: Inhibition of AKT phosphorylation in human A375 cells at 50 uM after 24 hrs by Western blotting analysis; type: cell-based; details: A-375
A-375 [2] = assay: Inhibition of human A375 cell adhesion to fibronectin-coated dish at 50 uM incubated for 30 mins measured after 1 to 4 hrs by crystal violet staining-based method relative to control; type: functional
A-375 [3] = assay: Induction of anoikis in human A375 cells at 50 uM after 24 hrs by FITC-labeled Annexin V-propidium iodide staining-based FACS flow cytometric analysis (reference value: 15%); type: functional
A-375 [4] = assay: Inhibition of serum-starved human A375 cell migration at 50 uM after 24 hrs relative to control; type: functional; details: A-375, 24 h
A-375 [5] = assay: Cytotoxicity against human A375 cells at 10 to 50 uM after 24 hrs by crystal-violet staining-based method; type: functional, cell-based

RAC-alpha serine/threonine-protein kinase (Homo sapiens), sequence (P31749 whole entry): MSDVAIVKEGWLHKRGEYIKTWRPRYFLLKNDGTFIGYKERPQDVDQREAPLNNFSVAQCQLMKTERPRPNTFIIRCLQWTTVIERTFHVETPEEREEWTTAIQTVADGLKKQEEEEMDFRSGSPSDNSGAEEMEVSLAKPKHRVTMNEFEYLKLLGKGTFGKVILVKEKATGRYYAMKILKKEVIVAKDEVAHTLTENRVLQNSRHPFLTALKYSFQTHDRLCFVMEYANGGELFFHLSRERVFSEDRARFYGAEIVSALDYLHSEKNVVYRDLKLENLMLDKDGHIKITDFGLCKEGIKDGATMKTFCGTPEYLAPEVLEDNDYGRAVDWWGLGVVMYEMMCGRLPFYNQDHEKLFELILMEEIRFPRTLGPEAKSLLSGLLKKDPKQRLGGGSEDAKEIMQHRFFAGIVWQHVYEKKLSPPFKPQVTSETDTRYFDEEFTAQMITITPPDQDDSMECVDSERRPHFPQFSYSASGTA

In the case of `CCCOc1c2cc(CCCn3cc(CCO[C@H]4O[C@H](CO)[C@H](O)C5=C4SC[C@]4(C[C@@H](O)[C@@H](O)[C@@H]([C@H](O)CO)O4)O5)nn3)cc1Cc1cc(CCCn3cc(CCO[C@H]4O[C@H](CO)[C@H](O)C5=C4SC[C@]4(C[C@@H](O)[C@@H](O)[C@@H]([C@H](O)CO)O4)O5)nn3)cc(c1OCCC)Cc1cc(CCCn3cc(CCO[C@H]4O[C@H](CO)[C@H](O)C5=C4SC[C@]4(C[C@@H](O)[C@@H](O)[C@@H]([C@H](O)CO)O4)O5)nn3)cc(c1OCCC)Cc1cc(CCCn3cc(CCO[C@H]4O[C@H](CO)[C@H](O)C5=C4SC[C@]4(C[C@@H](O)[C@@H](O)[C@@H]([C@H](O)CO)O4)O5)nn3)cc(c1OCCC)C2`, the inhibition [1] is reported as “Active”, the inhibition at 50 µM (A-375 [2]) is reported as 33% and the Activity (A-375 [3]) is reported as 32%. For the same molecule, the inhibition at 50 µM (A-375 [4]) was 60% and the Activity (A-375 [5]) was “inactive”.

With `CO[C@H]1O[C@H](CO)[C@H](O)C2=C1SC[C@]1(C[C@H](O)[C@H](O)[C@H]([C@H](O)CO)O1)O2` the inhibition (A-375 [2]) was “inactive” and the Activity (A-375 [5]) was “inactive”.

For `O=C(CCCCC(=O)NCCNC(=O)CCN(CCC(=O)NCCNC(=O)CCCCC(=O)NCCCCCCO[C@H]1O[C@H](CO)[C@H](O)C2=C1SC[C@]1(C[C@@H](O)[C@@H](O)[C@@H]([C@H](O)CO)O1)O2)CCN(CCC(=O)NCCNC(=O)CCCCC(=O)NCCCCCCO[C@H]1O[C@H](CO)[C@H](O)C2=C1SC[C@@]1(C[C@@H](O)[C@@H](O)[C@@H]([C@H](O)CO)O1)O2)CCC(=O)NCCNC(=O)CCCCC(=O)NCCCCCCO[C@H]1O[C@H](CO)[C@H](O)C2=C1SC[C@@]1(C[C@@H](O)[C@@H](O)[C@@H]([C@H](O)CO)O1)O2)NCCCCCCO[C@H]1O[C@H](CO)[C@H](O)C2=C1SC[C@]1(C[C@@H](O)[C@@H](O)[C@@H]([C@H](O)CO)O1)O2`, the inhibition (A-375 [2]) was “inactive” and the Activity (A-375 [5]) was “inactive”.

In the case of `CC(=O)OC[C@@H](OC(C)=O)[C@@H]1O[C@@]2(CSC3=C(O2)[C@@H](OC(C)=O)[C@@H](COC(C)=O)O[C@@H]3OCCCCCCNC(=O)CCCCC(=O)Oc2ccc([N+](=O)[O-])cc2)C[C@H](OC(C)=O)[C@@H]1OC(C)=O`, the inhibition (A-375 [2]) is reported as “inactive”.

In the case of `CC(C)(C)OC(=O)NCCN(CCC(=O)NCCN)CCC(=O)NCCN`, the inhibition (A-375 [2]) is reported as “inactive”.

For `CC(C)(C)OC(=O)NCCN(CCC(=O)NCCNC(=O)CCCCC(=O)NCCCCCCO[C@H]1O[C@H](CO)[C@H](O)C2=C1SC[C@@]1(C[C@@H](O)[C@@H](O)[C@@H]([C@H](O)CO)O1)O2)CCC(=O)NCCNC(=O)CCCCC(=O)NCCCCCCO[C@H]1O[C@H](CO)[C@H](O)C2=C1SC[C@@]1(C[C@@H](O)[C@@H](O)[C@@H]([C@H](O)CO)O1)O2`, the inhibition (A-375 [2]) was “inactive” and the Activity (A-375 [5]) was “inactive”.
